Key:
[1] = tested on: extracellular chromatin (NETs); test: Extracellular chromatin (NETs) binding to coated nitinol disks, Sytox Green staining; set-up: species or system human; details: for Chomatin binding (% of max): coated nitinol disks applied 3 minutes on nigericin-stimulated human neutrophils, mean±SEM, 6/coating; for Chromatin/Platelet binding ratio: ratio of chromatin binding to platelet binding (% of max)
Source text: (§1) Nitinol disks are left untouched (bare metal) or coated with the tested chromatin ligands following a polydopamine, DBCO-PEG4-amine and azide derivative ligand sequential dip-coating layering procedure.
Extracellular chromatin adhering to the disk surface was stained with the cell impermeant nuclear dye Sytox Green.
(§2) Each dot corresponds to the mean binding (% of max, mean±SEM) of chromatin (X-axis) and platelet (Y-axix) with the standard error bars parallel to the respective axis.
(§3) Different linkers were combined with piperaquine and the resulting azide derivatives were used for coating nitinol disks (N=6 for each compound), following the described 3-step dip-coating procedure. Platelet adhesion (left panel) was evaluated by analyzing the surface and intensity of the phalloidin staining (green fluorescence) after immersion of the disks (N^o=6/coating) for 10 min in blood withdrawn in PPAK (thrombin inhibitor providing a transient anticoagulation). The binding of extracellular chromatin was evaluated by applying for 3 minutes the disks on the bottom of wells in which fresh human neutrophils were stimulated with nigericin for 4 hours, to promote the formation of neutrophil extracellular traps (NETs). Extracellular chromatin was stained with the cell impermeant nuclear dye Sytox Green.

[2] = tested on: blood platelets; test: Platelet adhesion to coated nitinol disks, phalloidin-AlexaFluor 488 staining; format: cell-based; details: for Platelet binding (% of max): coated nitinol disks immersed 10 min in blood withdrawn in PPAK, mean±SEM, 6/coating
Source text: as §1, §2, §3

[3] = tested on: thrombus material (DNA and proteins); details: coated nitinol disks vs bare metal; thrombus slice 5 minutes at 37° C. in human plasma; Hoechst 33342 / Evans Blue staining
Procedure: Polydopamine (1 mg/ml in tris buffer, pH 8.5, 22±2 hours)
A fresh thrombus was prepared with human whole blood additioned with PMA 100 nM and ionomycin 1 μM to promote strong leukocyte activation leading to the release of extracellular chromatin within the thrombus. Slice of the same thrombus were layered onto coated and bare metal disks in the wells of a 48-well plate, covered with human plasma and incubated at 37° C. on an orbital shaker for 5 minutes. The thrombus slices were mechanically removed using tweezers, the disk washed in PBS and stained with a solution made of Hoechst 33342 (1 μg/ml, to stain DNA) and Evans Blue (3%, to stain proteins) in PBS for 5 minutes. […] The image analysis was performed using the Image J open software.

[4] = coated disk compared to bare metal

| Compound | Chromatin binding (example disk image, in words) [1, 4] | Chomatin binding (% of max) [1] | Chromatin/Platelet binding ratio [1] | Platelet binding (example disk image, in words) [2, 4] | Platelet binding (% of max) [2] | DNA and proteins captured from the thrombus (Integrated Density) [3] |
| --- | --- | --- | --- | --- | --- | --- |
| [N-]=[N+]=NCCOCCOCCNC(=O)c1cc2cc(N(CCCl)CCCl)ccc2o1 [MBF, N-(2-(2-(2-azidoethoxy)ethoxy)ethyl)-5-(bis(2-chloroethyl)amino)benzofuran-2-carboxamide] | high | 66.07 ± 13.21 % of max | 2.85 | low platelet binding | 23.18 ± 4.05 % of max |  |
| CCCCCOCCCCCN=[N+]=[N-] [Pipe-2] |  | 57.5 7.05 % of max | 3.59 |  | 16 ± 5.78 % of max |  |
| Cn1cc(NC(=O)c2cc(NC(=O)c3cc(NC=O)cn3C)cn2C)cc1C(=O)NCCC(=N)N [Distamycin, reference compound] |  | 12.26 ± 4.14 % of max | 0.99 |  | 12.42 ± 1.72 % of max |  |
| [N-]=[N+]=NCCOCCOCCNC(=O)CCc1ccc(N(CCCl)CCCl)cc1 [PPM, N-(2-(2-(2-azidoethoxy)ethoxy)ethyl)-3-(4-(bis(2-chloroethyl)amino)phenyl)propanamide] |  | 36.75 ± 5.78 % of max | 0.75 |  | 48.8 ± 5.59 % of max |  |
| CSc1ccc2c(c1)N(CCC1CCCCN1C)c1ccccc1S2 (centres unmarked) [thioridazine] |  |  |  |  |  | capture more DNA and proteins |
| O=C(O)c1cn(C2CC2)c2cc(N3CCNCC3)c(F)cc2c1=O [Ciprofloxacin, reference compound] |  | 23.63 ± 9.59 % of max |  |  | 27.57 ± 3.22 % of max |  |

Reference: US20230241057A1, “COMPOUNDS FOR THE PREVENTION, TREATMENT AND DIAGNOSIS OF THROMBI” (INSERM (INSTITUT NATIONAL DE LA SANTÉ ET DE LA RECHERCHE …, priority 2020, published 2023)
